“Also recorded” adds a separate entry of the source.
Assays:
[1] = tested on: vascular calcification (aortae and carotid arteries); experiment: Experiment 4: vascular calcification (Von Kossa staining) in rats treated with warfarin, vitamin K-1 and increasing doses of MK-4 (KW model); format: in vivo, male Lewis rats
Source text: In the present invention the “Vitamin K1 plus warfarin” model was used to test effects of isoprenyl derivatives on vascular calcification. This model is also referred to as the “KW model for calcification” or “KW model”. Because of the parallels between vascular calcification and calcium metabolism in bone, the model is regarded to be valid for describing potential effects on bone. Whereas in this model the bone deformations will not become visible before 9 months of treatment, calcification of the large arteries is usually apparent within 4 weeks of treatment. This model therefore provides an excellent in vivo model to test the compounds according to the invention for their tissue distribution, toxicity and effectivity. […] It was shown that calcification was not inhibited by vitamin K-1 in doses going up from 40 to 600 mg/kg of body weight per day. The highest dose was 15,000 times the amount required for normal blood coagulation in untreated animals, and 15 times the amount required for normal blood coagulation in warfarin-treated animals. At these high intakes all tissues contain excessive amounts of vitamin K-1, which apparently are incapable of supporting the synthesis of inhibitors of calcium precipitation such as the Gla-protein MGP. […]

[2] = tested on: postmenopausal bone loss; settings: cited from earlier work
[3] = tested on: prothrombin; experiment: Experiment 1: dietary requirement of vitamin K-1 in untreated rats, prothrombin concentration (one-stage coagulation assay); format: in vivo, male Lewis rats; settings: for Mean prothrombin concentration: four weeks
Experimental: In experiment 1 the dietary requirement of vitamin K-1 was measured in untreated male Lewis rats, 6 weeks of age, on the basis of blood coagulation tests after a treatment period of 4 weeks. At an intake of 40 microgram vitamin K-1 per kg body weight per day, the synthesis of coagulation factors had reached its (maximal) plateau level.
Male rats of the Lewis strain were used throughout our experiments, six animals per group. Thirty six animals entered the experiment at the age of 6 weeks and received a vitamin K deficient diet (Hope Farms, Woerden, The Netherlands) for one week to deplete them from endogenous vitamin K. During the experiment they were housed in coprophagy-preventing cages. After this period citrated blood was taken from the tail vein, and the prothrombin concentrations (one-stage coagulation assay) were checked to be below the normal reference value. At that time they received vitamin K-deficient food to which controlled amounts of vitamin K-1 were added in the following doses: 0.1, 0.2, 0.4, 0.6, 0.8, and 1.0 mg/kg of food. The daily food intake was recorded, and the body weight of the animals was measured regularly. After four weeks of treatment at the indicated doses again blood was taken and prothrombin concentrations were measured. Mean prothrombin concentrations in the groups were: 23%, 48%, 82%, 98%, 102%, and 99% of pooled normal rat reference plasma. […] This amount corresponds with an intake of 40 micrograms of vitamin K-1 per kg body weight per day.

[4] = tested on: prothrombin; experiment: Experiment 2: dietary requirement of vitamin K-1 in warfarin-treated rats, plasma prothrombin level; format: in vivo, male Lewis rats
Experimental: In experiment 2 the dietary requirement of vitamin K-1 in warfarin-treated (300 mg Vitamin K-1 per kg body weight per day) male Lewis rats, 6 weeks of age, was measured on the basis of blood coagulation tests after a treatment period of 4 weeks. At a level of 40 mg vitamin K-1 per kg body weight per day a normal prothrombin synthesis was maintained.
Thirty six male Lewis rats (6 weeks of age) were treated with an excess of warfarin (300 mg vitamin K-1 per kg body weight per day) to block all dithiol reductase present in the tissues. They were subdivided into groups of 6 animals each and received vitamin K-1 in the following doses: 20, 40, 70, 100, 300, and 600 mg/kg body weight per day. […] It was concluded that […] of vitamin K-1 per kg body weight per day effectively protects the animals against warfarin-induced bleeding.

[5] = tested on: vascular calcification (aortic arch and carotid arteries); experiment: Experiment 3: vascular calcification (Von Kossa staining) in rats treated with warfarin and increasing doses of vitamin K-1; format: in vivo, male Lewis rats
Source text: In the present invention the “Vitamin K1 plus warfarin” model was used to test effects of isoprenyl derivatives on vascular calcification. This model is also referred to as the “KW model for calcification” or “KW model”. Because of the parallels between vascular calcification and calcium metabolism in bone, the model is regarded to be valid for describing potential effects on bone.
The same animals described in experiment 2 were killed, and the aortic arch and carotid arteries were removed and stained for calcium deposits using the Von Kossa staining and histochemical inspection.

SMILES: CC(C)=CCC/C(C)=C/CC/C(C)=C/CC/C(C)=C/CC1=C(C)C(=O)c2ccccc2C1=O [MK-4, 2-methyl 3-geranylgeranyl naphthoquinone]
- Inhibition of vascular calcification ([1]; KW model, addition of 10 mg/kg body weight per day of MK-4): effectively inhibited all vascular calcification
- Vascular calcification (Von Kossa staining) ([1]; warfarin 300 mg/kg/d plus vitamin K-1 70 mg/kg/d plus MK-4 10, 20 and 50 mg per kg body weight per day, 6 weeks): no calcification
- Action on bone ([2]; high doses of MK-4 (45 mg/day)): comparable with that of bisphosphonates
- Effect on postmenopausal bone loss ([2]; high doses): almost completely inhibit postmenopausal bone loss

SMILES: CC1=C(C/C=C(\C)CCC[C@H](C)CCC[C@H](C)CCCC(C)C)C(=O)c2ccccc2C1=O [vitamin K-1]
- Diet content sufficient to maintain normal prothrombin synthesis ([3]; untreated rats, content in food): 0.6 mg of vitamin K-1 per kg
- Mean prothrombin concentration ([3]; vitamin K-1 0.1 mg/kg of food, after vitamin K deficient diet): 23 % of pooled normal rat reference plasma
- Mean prothrombin concentration ([3]; vitamin K-1 0.2 mg/kg of food): 48 % of pooled normal rat reference plasma
- Mean prothrombin concentration ([3]; vitamin K-1 0.4 mg/kg of food): 82 % of pooled normal rat reference plasma
- Mean prothrombin concentration ([3]; vitamin K-1 0.6 mg/kg of food): 98 % of pooled normal rat reference plasma
- Mean prothrombin concentration ([3]; vitamin K-1 0.8 mg/kg of food): 102 % of pooled normal rat reference plasma
- Mean prothrombin concentration ([3]; vitamin K-1 1.0 mg/kg of food): 99 % of pooled normal rat reference plasma
- Dose that effectively protects the animals against warfarin-induced bleeding [4]: 70 mg of vitamin K-1 per kg body weight per day
- Level at which a normal prothrombin synthesis was maintained ([4]; 4 weeks): 40 mg vitamin K-1 per kg body weight per day
- Circulating prothrombin concentration ([4]; 20 and 40 mg of vitamin K-1 per day): 60 % of normal
- Circulating prothrombin concentration ([4]; all higher intakes (70, 100, 300, 600 mg/kg body weight per day)): comparable to normal reference values
- Inhibition of calcification ([5]; KW model, vitamin K-1 doses going up from 40 to 600 mg/kg of body weight per day): not inhibited
- Vascular calcification (Von Kossa staining) ([5]; warfarin 300 mg/kg/d plus vitamin K-1 20, 40, 70, 100, 300 and 600 mg/kg body weight per day, 4 weeks): substantial calcification; also recorded: Calcification of the media (notably the elastic lamelae) was found in all animals

— US20050176778A1, “Isoprenyl derivatives and their use in the title treatment and prevention of osteoporosis and cardiovascular calcification” (Vitak BV, priority 2001, published 2005)
